Literature values in patent US20070298096A1, “Analgesic/Antipyretic Compositions for Enhanced Absorption” (priority 2004, published 2007).
Where two headings read alike, the source gives them in different places.

SMILES: CC(=O)Nc1ccc(O)cc1 [APAP, acetaminophen]
- tmax (1 gram of APAP administered with 4 grams of calcium carbonate): 1.9 h
- tmax (APAP alone, 1 gram): 1.4 h
- time for the plasma level of APAP to reach its maximum, longer than APAP alone (co-administered with the calcium carbonate): ½
